This note sets out measurements from patent publication US12527835B2, “Brevican-binding peptides for brain tumor imaging” (The Brigham and Women's Hospital, Inc., priority 2018, dated 2026).

Molecules are shown by their SMILES. Where a SMILES comes first, the peptide text is derived from it. [ ]: non-standard residue; d: D form.

One experiment relates to BT188 glioma stem cells. Nature of the experiment: Peptide uptake in BT188 (BΔg-high) versus BT145 (BΔg-low) glioma stem cells, fluorescence imaging. It counts as cell-based, human. Conditions: fluorescein-labeled peptides, 5 μM. From the text:
FIGS. 3A-I. Peptide characterization for BΔg specificity in glioma stem cells. (a) Table summary listing the properties of 7 peptides (composed of 8 D-amino acid residues, SEQ ID NOs:3-9, in order of appearance) that were isolated from the OBOC library screen. MW=molecular weight; KD=Kyte-Doolittle scale for amino acid hydropathy (positive scores indicate […]) (Kyte and Doolittle, J. Mol. Biol. 157, 105-132 (1982)). (b) Chemical structure showing the linkage between the peptide and FITC. (c) Western blot analysis showing the level of BΔg and Bcan in human embryo kidney (HEK) cells, and Bcan-overexpressing HEK cells (HEK-Bcan). […] Each group was normalized to a no-blocking (vehicle) control. Statistics were performed using multiple t-tests, and significance was measured in comparison to each vehicle control (p<0.0001). (e) Uptake of fluorescein-labeled BTP-2, 7, 8, 9, and 10 (at 5 μM conc.) in BT188 (BΔg-high) or BT145 (BΔg-low) glioma stem cells (GSCs). Western blot analysis on the top right confirms the BΔg expression level. […] Statistics were performed using the two-way ANOVA and Tukey's Multiple Comparison test. (f) Chemical structure showing the linkage between the peptide and Cy5.5 dye. (g) Western blot analysis showing the expression of BΔg in GBM-6 cells, with negligible BΔg level in astrocytes or neural progenitor cells (NPC). (h) Graph showing the cell uptake ranking of the top 3 peptide candidates, BTP-7, 8 and 9 in GBM-6 cells as determined by flow cytometry analysis with s.d. error bars (5 μM conc.; nevents=20,000 cells; nexperiment=5). Each group is normalized to the control scramble peptide (Scr-8). Statistics were performed using the one-way ANOVA and Tukey's Multiple Comparison test (significance were measured in comparison to the Scr-8 control). (i) Bar graph showing the uptake of BTP-7, 8 and 9 in GBM-6 cells and NPC with 95% confidence interval error bars (1 μM conc.; nevents=20,000 cells). Statistics were performed using the two-way ANOVA and Sidak's Multiple Comparison test.

Experiment [1] concerns the target T1, recombinant BΔg protein (deglycosylated brevican) (Homo sapiens, UniProt Q96GW7).
T1 construct: purchased R&D Systems 4009-BC-050
T1 sequence (Q96GW7 23-911): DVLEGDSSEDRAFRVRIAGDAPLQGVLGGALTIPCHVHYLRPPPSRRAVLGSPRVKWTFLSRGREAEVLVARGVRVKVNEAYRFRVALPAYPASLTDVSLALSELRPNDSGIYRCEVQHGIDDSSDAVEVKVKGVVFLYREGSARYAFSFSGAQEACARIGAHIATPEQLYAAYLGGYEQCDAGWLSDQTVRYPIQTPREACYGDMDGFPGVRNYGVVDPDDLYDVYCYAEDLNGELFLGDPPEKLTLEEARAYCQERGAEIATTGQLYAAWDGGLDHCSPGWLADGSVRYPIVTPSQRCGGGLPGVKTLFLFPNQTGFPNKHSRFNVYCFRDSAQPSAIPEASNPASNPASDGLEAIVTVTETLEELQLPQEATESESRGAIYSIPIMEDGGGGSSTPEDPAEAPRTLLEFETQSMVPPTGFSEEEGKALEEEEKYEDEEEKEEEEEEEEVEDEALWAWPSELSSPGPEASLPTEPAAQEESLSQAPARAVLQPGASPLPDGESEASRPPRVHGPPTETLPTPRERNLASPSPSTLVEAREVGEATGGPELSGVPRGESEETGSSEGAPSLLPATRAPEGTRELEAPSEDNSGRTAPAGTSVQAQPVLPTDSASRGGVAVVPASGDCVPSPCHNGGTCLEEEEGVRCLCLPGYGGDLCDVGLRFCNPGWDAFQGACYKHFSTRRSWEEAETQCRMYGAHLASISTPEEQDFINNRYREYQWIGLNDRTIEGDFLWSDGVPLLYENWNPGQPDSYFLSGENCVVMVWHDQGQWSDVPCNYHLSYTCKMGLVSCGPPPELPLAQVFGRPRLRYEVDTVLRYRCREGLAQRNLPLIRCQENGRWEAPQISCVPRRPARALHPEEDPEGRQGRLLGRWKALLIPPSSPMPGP
Nature of the experiment: Octet steady state binding affinity to recombinant BΔg. The following applies: steady state analysis, Octet RED, peptide up to 10 μM; read-out: KD (dissociation constant) to BΔg protein. The method, then:
A ForteBio OctetRed384 instrument was used to study the binding kinetics of each peptide to recombinant human brevican (re-suspended in PBS and 0.1 mM EDTA, pH 6.8). The brevican protein was deglycosylated prior to experimental use in water+0.05% tween, PI, sialidase, 0-glycosidase, N-glycosidase in sodium acetate [200 mM], NaCl [250 mM], Tris-HCl [200 mM], pH 7.5.) in the presence of protease inhibitor overnight at 4° C. (this entire composition will be referred to as ‘de-glycosylation buffer’). […] The final volume for all the solutions was 80 μl/well. Assays were performed at 30° C. in solid black 384-well plates (Geiger Bio-One). Prior to beginning, Ni-NTA biosensors were soaked for 10 min in working buffer. Before loading the protein onto each biosensor, a baseline was established in working buffer for 60 s. Deglycosylated brevican (50 μg/ml BΔg; His-tagged) was loaded on the surface of each biosensors for 180 s. […] Reference biosensors were also included in the plate as internal controls, where biosensors were exposed to the ‘de-glycosylation buffer’ lacking brevican protein during the loading step. A 60 s biosensor washing step was applied. Then, biosensors were exposed to the analyte (peptide) in working buffer (ranging between 0-10 μM BTP) for 300 s during the ‘association’ step. Finally, the biosensors were exposed to working buffer (without peptide) during the ‘dissociation’ step for 600 s. Binding affinity of each peptide was assessed through steady state analysis, where the response unit was plotted over peptide concentration. All data was plotted and curves were fitted using the non-linear ‘one-site specific binding’ fit, and the dissociation constant (KD) value was calculated using the GraphPad Prism software.
Binding kinetics analyses were performed using the Octet RED platform (Forte Bio) to measure the binding affinity of BTP-7, 8 and 9 to purified recombinant BΔg protein.
(In general: Biolayer interferometry detects binding as a change in optical thickness at a sensor tip.)

By Kd is commonly meant the concentration at which binding is half-saturated. For the compound `CC[C@@H](C)[C@@H](NC(=O)[C@H](N)[C@H](C)O)C(=O)N[C@H](CCCNC(=N)N)C(=O)N[C@H](CCCCN)C(=O)N[C@H](CC(C)C)C(=O)N[C@@H](C(=O)N[C@H](CCCNC(=N)N)C(=O)N[C@H](Cc1c[nH]cn1)C(N)=O)C(C)C` [BTP-8] (H-[dT][dI][dR][dK][dL][dV][dR][dH]-NH2; N-terminus and C-terminus assumed), in the experiment on BT188 glioma stem cells, the “size of the difference in uptake between BT188 and BT145 GSCs (ranking)” value was “largest and most significant difference”; the “uptake in BT188 GSCs compared with BT145 GSCs” value was “greater uptake”. For the same compound, the Kd in experiment [1] was 1570 nM.
